In patent US20090041672A1, “Drug for Treating or Diagnosing Vascular Lesion in the Skin or the Subcutaneous Soft Tissue Caused by Light Irradiation” (priority 2005, published 2009):

Columns and labels:
[1] = Plasma drug level in human after PDT; assay type: in vivo; conditions: from actually measured plasma level of Example 2
Protocol: (§1) To 2 normal individuals (Subject A: normal person, Subject B: normal person), talaporfin sodium was intravenously administered at a dose of 0.2 mg/kg. After the administration, the skin of the upper arm was irradiated with a diode laser (irradiation conditions: irradiation energy of 25 J/cm^2 and 50 J/cm^2 at an […] of 127 mW/cm^2, diameter of irradiated spots: 1 cm in both spots). Subject A was followed up for 2 weeks and Subject B was followed up for 2 months.
Further, it was confirmed from the change with time of the plasma drug level measured after the PDT that the plasma level at which the photosensitive reaction no longer occurs is attained at 24 to 48 hours from the intravenous injection. This period of time is almost coincident with the period of time deduced from the model of pharmacokinetics, so that the correctness of the above-described estimated required shading time was confirmed.

[2] = Plasma talaporfin sodium level in cocks at the end of treatment; assay type: in vivo; conditions: 2.5 mg/kg intravenous, at end of laser treatment
Protocol: (§2) As the model of PDT to cutaneous vascular lesion (capillary hemangioma), cock's combs were used. Cock's comb is recognized as a model of cutaneous vascular lesion (capillary hemangioma) in this field. To each cock of 22 to 24 weeks old (bodyweight: about 2.5 kg), talaporfin sodium solution (concentration: 5 mg/ml) was intravenously injected from the brachial vein in an amount of 2.5 mg/kg bodyweight of the cock, in terms of the amount of talaporfin sodium. Immediately after the intravenous injection, the cock's comb was irradiated with a diode laser (wavelength: 664.5 nm±2 nm, irradiation power density: 127 mW/cm^2, energy density: 25 J/cm^2 or 50 J/cm^2). As an experimental group, (i) PDT-performed group was made, and as control groups, (ii) a group to which only the intravenous injection of talaporfin sodium was performed, and (iii) a group to which only laser irradiation was performed, were made. The mean plasma talaporfin sodium level at the end of the treatment was also measured.

[3] = system: skin of the upper arm; assay: Safety tests to human: PDT on skin of the upper arm of normal individuals; assay type: in vivo
Protocol: as §1

[4] = system: cock's combs; assay: PDT of cock's comb, model of cutaneous vascular lesion (capillary hemangioma); assay type: in vivo, cocks
Description: Animals Used: cocks (bodyweight: 2.5 to 3.5 kg) of 22 to 24 weeks old
Photosensitizer: talaporfin sodium
Laser Used Panalas6405, diode laser, wavelength: 664.5 nm±2 nm, output power: 75-500 mW
as §2
Morphological changes during 7 days after the treatment were visually observed, and the cocks were subjected to autopsy 7 days after the treatment. Tissue preparations were stained by hematoxylin eosin staining by a conventional method, and as required, PTAH staining (fibrin staining) and AZAN staining (collagen fiber staining) were added.

[5] = PDT-performed group, autopsy 7 days after treatment
[6] = control group, only drug administration, no laser

## Tetrasodium salt of mono-L-aspartyl chlorin e6 [talaporfin sodium]
[1]
  amount of talaporfin sodium needed in human for attaining the plasma level found in cocks (2.3 μg/mL): 0.2 mg/kg
[2]
  mean plasma talaporfin sodium level at the end of treatment: 2.3 µg/mL
[3]; 0.2 mg/kg i.v. + diode laser 25 and 50 J/cm^2, from immediately after the PDT
  edema in the irradiated sites and vicinities: slight edema was observed
[3]; 0.2 mg/kg i.v. + diode laser 25 and 50 J/cm^2, up to 2 days after the treatment
  erythema in the irradiated sites: slight erythema was observed
[3]; 0.2 mg/kg i.v. + diode laser, one week after the treatment
  erythema in the irradiated sites: the erythema had been disappeared
[3]; Subject B, 0.2 mg/kg i.v. + diode laser
  side effects at two months from the treatment: no side effects were observed
[4]; [5]
  histological findings: blood vessels in the dermis (hematoxylin eosin): disappearance of vasodilated blood vessels in the dermis was observed
  histological findings: hyperplasia of collagen fibers in the stroma: not observed
  histological findings: stratum corneum epidermidis and stratum basale epidermidis in the irradiated site: the continuity of the stratum corneum epidermidis was maintained, and the stratum basale epidermidis was also conserved
  histological findings: vascular endothelial cells in the dermis (highly magnified image): disappearance of vascular endothelial cells was observed
[4]; PDT-performed group: 2.5 mg/kg i.v. + diode laser 664.5 nm, 127 mW/cm^2, 25 or 50 J/cm^2, observed 7 days
  visual findings: decoloration reaction: decoloration reaction was observed at the site coincident with the irradiated site
[4]; [6]
  histological findings: No changes were observed
  visual findings: decoloration reaction: Decoloration reaction was not observed
